Measured values published in patent US20220323437A1, “METHODS FOR TREATING PULMONARY ARTERIAL HYPERTENSION” (ACTELION PHARMACEUTICALS LTD, priority 2019, published 2022).

Experiment: Adverse events during switch from oral to i.v. selexipag and back in subjects with stable PAH (Phase 3 study)
Format: in vivo, human
Settings: for AE incidence: Blindness unilateral / AE incidence: Chromaturia / AE incidence: Cough / AE incidence: Dyspnoea / AE incidence: Flushing / AE incidence: Headache / AE incidence: Hypokalaemia / AE incidence: Nasopharyngitis / AE incidence: Nausea / AE incidence: Oedema peripheral / AE incidence: Rhegmatogenous retinal detachment / AE incidence: Right ventricular failure / AE incidence: Upper respiratory tract infection / Subjects with at least one AE: Period 3 + follow-up (oral selexipag, up to 37 days)
Procedure: This was a prospective, multicenter, open-label, single-sequence, cross-over, Phase 3 study. Based on the dose of selexipag received at study entry, subjects were allocated to one of the following groups, selexipag 200-1000 μg b.i.d. or selexipag 1200-1600 μg b.i.d. See, FIG. 1. The study comprised the following periods:
(ii) Treatment and observation period: The treatment and observation period included the following consecutive periods: • Period 1 included oral selexipag pre-treatment period for 1 day, in-hospital. This period started with intake of the morning dose of oral selexipag on Day 1 at Visit 2 and ended the following day, before initiation of the first infusion of i.v. selexipag. • Period 2 included i.v. selexipag treatment period for 36 hours [3 infusions], in-hospital. This period started in the morning of Day 2 at Visit 2 with the start of the first infusion of i.v. selexipag and ended in the evening of Day 3 at Visit 2 before the evening administration of oral selexipag. Administration of oral selexipag was interrupted during the i.v. selexipag treatment period. • Period 3 included oral selexipag post-treatment period for 7 to 11 day. This period started in the evening of Day 3 at Visit 2 with the administration of oral selexipag and ended 7-11 days later, at Visit 3.
The endpoints analyzed for Period 1, Period 2, and Period 3 and follow-up period combined included discontinuations due to prostacyclin-associated AEs, adverse events (AEs) and serious adverse events (SAEs), prostacyclin-associated AEs, AEs related to injection site reactions, and PAH-related AEs.
The endpoints analyzed for (i) Period 1, Period 2, and Period 3 and follow-up period combined (ii) Period 1 and Period 2 combined, and (iii) Period 2 and Period 3 combined included discontinuations due to prostacyclin-associated AEs, discontinuations due to any AEs, AEs and SAEs, prostacyclin-associated AEs, PAH-related AEs, change from baseline in vital signs (systolic blood pressure [SBP], diastolic blood pressure [DBP], and pulse rate) and body weight, ECG abnormalities, marked laboratory abnormalities, and change from baseline in WHO FC.
The statistical analysis was mainly descriptive, without formal hypothesis testing. Exact Pearson-Clopper CIs for the incidence of AEs were computed.

[1] = Period 2 (intravenous selexipag treatment), high dose cohort (1200-1600 μg), N = 12
[2] = Period 2 (intravenous selexipag treatment), low dose cohort (200-1000 μg), N = 8
[3] = Period 2 (intravenous selexipag treatment), total, N = 20
[4] = Period 2 (iv selexipag), total, N = 20
[5] = Period 3 (oral selexipag), high dose cohort (1200-1600 μg), N = 12
[6] = Period 3 (oral selexipag), low dose cohort (200-1000 μg), N = 8
[7] = Period 3 (oral selexipag), total, N = 20
[8] = Period 3 + Follow-up (oral selexipag), total, N = 20
[9] = high dose cohort (1200-1600 μg), N = 12
[10] = low dose cohort (200-1000 μg), N = 8

## CC(C)N(CCCCOCC(=O)NS(C)(=O)=O)c1cnc(-c2ccccc2)c(-c2ccccc2)n1 [selexipag, 2-{4-[(5,6-diphenylpyrazin-2-yl)(propan-2-yl)amino]butoxy}-N-(methanesulfonyl)acetamide]
[1]
  Prostacyclin-associated AE incidence: Vomiting: 1 n (%)
  Subjects with at least one prostacyclin-associated AE: 6 n (%)
[2]
  Prostacyclin-associated AE incidence: Diarrhoea: 0 n (%)
  Prostacyclin-associated AE incidence: Flushing: 0 n (%)
  Prostacyclin-associated AE incidence: Headache: 1 (12.5) n (%)
  Prostacyclin-associated AE incidence: Myalgia: 0 n (%)
  Prostacyclin-associated AE incidence: Nausea: 0 n (%)
  Prostacyclin-associated AE incidence: Pain in jaw: 0 n (%)
  Prostacyclin-associated AE incidence: Tension headache: 0 n (%)
  Prostacyclin-associated AE incidence: Vomiting: 0 n (%)
  Subjects with at least one prostacyclin-associated AE: 1 (12.5) n (%)
[3]
  Prostacyclin-associated AE incidence: Diarrhoea: 1 n (%)
  Prostacyclin-associated AE incidence: Flushing: 1 n (%)
  Prostacyclin-associated AE incidence: Headache: 4 n (%)
  Prostacyclin-associated AE incidence: Myalgia: 1 n (%)
  Prostacyclin-associated AE incidence: Nausea: 1 n (%)
  Prostacyclin-associated AE incidence: Pain in jaw: 1 n (%)
  Prostacyclin-associated AE incidence: Tension headache: 1 n (%)
  Prostacyclin-associated AE incidence: Vomiting: 1 n (%)
[4]
  Deaths: 0 n (%)
  Discontinuations due to prostacyclin-associated AEs: 0 n (%)
  Number of subjects with at least one Injection site reaction-AE (ISR-AE): 2 n (%)
  Number of subjects with at least one Prostacyclin-associated AEs: 7 n (%)
  Number of subjects with at least one Serious adverse events (SAEs): 0 n (%)
  SAE incidence: Blindness unilateral: 0 n (%)
  SAE incidence: Rhegmatogenous retinal detachment: 0 n (%)
  SAE incidence: Right ventricular failure: 0 n (%)
Period 3
  PAH-related AE: peripheral edema: 2 subjects
  PAH-related AE: right ventricular failure in the context of respiratory tract infection: 1 subject
  subjects with PAH-related AEs: 3 subjects
Period 3 (oral selexipag) + Follow-up, total, N = 20
  SAE incidence: Right ventricular failure: 1 n (%)
[5]
  Prostacyclin-associated AE incidence: Flushing: 1 n (%)
  Prostacyclin-associated AE incidence: Headache: 1 n (%)
  Prostacyclin-associated AE incidence: Nausea: 1 n (%)
[6]
  Prostacyclin-associated AE incidence: Flushing: 0 n (%)
  Prostacyclin-associated AE incidence: Headache: 0 n (%)
  Prostacyclin-associated AE incidence: Nausea: 0 n (%)
[7]
  Prostacyclin-associated AE incidence: Flushing: 1 n (%)
  Prostacyclin-associated AE incidence: Headache: 1 n (%)
  Prostacyclin-associated AE incidence: Nausea: 1 n (%)
[8]
  Deaths: 0 n (%)
  Discontinuations due to prostacyclin-associated AEs: 0 n (%)
  Number of subjects with at least one Injection site reaction-AE (ISR-AE): 0 n (%)
  Number of subjects with at least one Prostacyclin-associated AEs: 1 n (%)
  Number of subjects with at least one Serious adverse events (SAEs): 2 n (%)
[9]
  AE incidence: Blindness unilateral: 1 n (%)
  AE incidence: Chromaturia: 1 n (%)
  AE incidence: Cough: 1 n (%)
  AE incidence: Dyspnoea: 1 n (%)
  AE incidence: Flushing: 1 n (%)
  AE incidence: Headache: 1 n (%)
  AE incidence: Hypokalaemia: 1 n (%)
  AE incidence: Nasopharyngitis: 0 n (%)
  AE incidence: Nausea: 1 n (%)
  AE incidence: Oedema peripheral: 1 n (%)
  AE incidence: Rhegmatogenous retinal detachment: 1 n (%)
  AE incidence: Right ventricular failure: 1 n (%)
  AE incidence: Upper respiratory tract infection: 1 n (%)
  Subjects with at least one AE: 6 n (%)
[10]
  AE incidence: Blindness unilateral: 0 n (%)
  AE incidence: Chromaturia: 0 n (%)
  AE incidence: Cough: 0 n (%)
  AE incidence: Dyspnoea: 0 n (%)
  AE incidence: Flushing: 0 n (%)
  AE incidence: Headache: 0 n (%)
  AE incidence: Hypokalaemia: 0 n (%)
  AE incidence: Nasopharyngitis: 1 (12.5) n (%)
  AE incidence: Nausea: 0 n (%)
  AE incidence: Oedema peripheral: 1 (12.5) n (%)
  AE incidence: Rhegmatogenous retinal detachment: 0 n (%)
  AE incidence: Right ventricular failure: 0 n (%)
  AE incidence: Upper respiratory tract infection: 0 n (%)
  Subjects with at least one AE: 2 (25.0) n (%)
total, N = 20
  AE incidence: Blindness unilateral: 1 n (%)
  AE incidence: Chromaturia: 1 n (%)
  AE incidence: Cough: 1 n (%)
  AE incidence: Dyspnoea: 1 n (%)
  AE incidence: Flushing: 1 n (%)
  AE incidence: Headache: 1 n (%)
  AE incidence: Hypokalaemia: 1 n (%)
  AE incidence: Nasopharyngitis: 1 n (%)
  AE incidence: Nausea: 1 n (%)
  AE incidence: Oedema peripheral: 2 n (%)
  AE incidence: Rhegmatogenous retinal detachment: 1 n (%)
  AE incidence: Right ventricular failure: 1 n (%)
  AE incidence: Upper respiratory tract infection: 1 n (%)
  Subjects with at least one AE: 8 n (%)
Periods 1 and 2
  PAH-related AEs: No PAH-related AEs
conclusion
  AE profile during treatment with i.v. selexipag: consistent with the known safety profile of selexipag
  tolerability of the switch from oral selexipag (Period 1) to i.v. selexipag (Period 2) and back to oral selexipag (Period 3): well tolerated
Whole study
  Deaths: No subject died
  discontinued study treatment due to an AE: No subject
  prostacyclin-associated AEs reported as severe, serious, or resulting in discontinuation of study treatment: None
